Experimental data taken from patent US12473304B2, “Heterocyclic PAD4 inhibitors” (BRISTOL-MYERS SQUIBB COMPANY, priority 2020, dated 2025).

Molecular target: human PAD4 (hPAD4) (Homo sapiens (Human), UniProt Q9UM07)
Test: RFMS Human PAD4 Functional Assay 1
Assay type: biochemical
Details: RFMS assay 1; 5 nM hPAD4, 250 μM BAEE substrate, 50 μM calcium, 37° C.
Protocol: RFMS Human PAD4 Functional Assay 1:
Compounds were solubilized in 100% DMSO to achieve all) mM compound concentration. Compound stock solutions were stored at RT. A series of dilutions were prepared in DMSO and mixed 8 times with 20 μL mixing volume. Final top concentration of compound in the assay is 50 μM. Final assay conditions were as follows: • Reaction volume: 26 μl • Assay buffer: 25 mM hepes, pH 7.5, 5 mM NaCl, 1 mM DTT, 0.2 mg/ml BSA, 0.01% CHAPS, 50 μM Calcium, and 5 μM TPEN • Final concentrations: 5 nM hPAD4 enzyme, 250 μM BASE, and 0.5% DMSO • Total incubation time: 30 mins compound and enzyme preincubation at 37° C., 90 min enzyme/substrate reaction, 30 min reaction with phenyl glyoxal at 37° C. • Stop solution: 40 μl 5% TCA in ACN
0.13 μL of compound solution was added to 13 μL of 10 nM PAD4 in assay buffer. After 30 min 13 μl of 500 μM of BAEE was added in 25 mM hepes, pH 7.5, 5 mM NaCl, 1 mM DTT, 0.2 mg/ml BSA, 0.01% CHAPS, 50 μM Calcium, 5 μM TPEN was added and the reaction incubated for 90 min at 37° C. The enzymatic reaction was quenched by addition of 15 μl of 6.1N TCA, 100% Final Concentration is 20%, 35 μl of 8.5 mM phenyl glyoxal (final concentration 4 mM) is then added and the reaction is incubated for 30 min at 37° C.
After 30 minutes the plates are spun down to remove all precipitate. The enzyme reaction was quenched with an equal volume of methanol containing internal standard (modified citrulline). Samples were loaded onto the Rapid Fire RF300 system (Agilent) wherein they were first sipped for 1000 ms and then directly loaded to a C18 separations cartridge using a mixture of acetonitrile containing 0.01% formic acid for 3000 ms desalting. The flow rate of the mobile phase was 1.5 ml/min. Once the samples were eluted from the cartridge, a mobile phase of acetonitrile containing 0.01% formic acid was used to move the samples into the mass spectrometer for 4000 ms at a flow rate of 1.25 ml/min/Sciex API5500 triple quadrupole mass spectrometer (Applied Biosystems) equipped with ESI was used to analyze the peptidyl citrulline and internal standard ions.
MRM transition of product and internal standard were monitored at m/z 424.5 to 350.4 and m/z 293 to 247 respectively. The dwell time for each transition was set at 200 ms, and the ESI voltage was used at 5500 with a source temperature of 400° C. Extracted ion peaks for each transition were integrated using the Rapid Fire Integrator software. Peak area of analyte was normalized with internal standard.).

human PAD4 (hPAD4), sequence (Q9UM07 whole entry): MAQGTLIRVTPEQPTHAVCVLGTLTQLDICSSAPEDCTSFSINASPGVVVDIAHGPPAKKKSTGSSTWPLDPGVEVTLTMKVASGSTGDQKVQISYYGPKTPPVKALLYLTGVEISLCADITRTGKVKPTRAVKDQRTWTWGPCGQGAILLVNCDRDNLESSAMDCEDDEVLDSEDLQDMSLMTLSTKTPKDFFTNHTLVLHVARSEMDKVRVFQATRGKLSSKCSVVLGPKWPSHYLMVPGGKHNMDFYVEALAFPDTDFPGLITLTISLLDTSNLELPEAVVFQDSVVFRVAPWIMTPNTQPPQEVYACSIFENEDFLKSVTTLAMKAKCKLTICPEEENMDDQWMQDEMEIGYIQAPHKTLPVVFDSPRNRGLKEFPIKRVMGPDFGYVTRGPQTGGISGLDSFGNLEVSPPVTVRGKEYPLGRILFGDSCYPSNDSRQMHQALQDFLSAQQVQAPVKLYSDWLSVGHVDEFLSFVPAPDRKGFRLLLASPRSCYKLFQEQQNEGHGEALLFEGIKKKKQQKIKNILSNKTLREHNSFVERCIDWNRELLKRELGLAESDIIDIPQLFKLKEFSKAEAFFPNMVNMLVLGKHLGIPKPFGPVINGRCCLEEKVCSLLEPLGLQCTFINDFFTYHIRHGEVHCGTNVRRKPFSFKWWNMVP

| IC50 | SMILES |
| --- | --- |
| 20 nM | Cc1c(-c2cc3cccc(C4CCN(C(=O)C5CC(O)C5)CC4)c3n2CC2CC2)nn2cc(C(=O)N3CC4CCC3[C@@H]4N)ccc12 (mixture of isomers) [Example 467, (4-(2-(6-((7R)-7-amino-2-azabicyclo[2.2.1]heptane-2-carbonyl)-3-methylpyrazolo[1,5-a]pyridin-2-yl)-1-(cyclopropylmethyl)-1H-indol-7-yl)piperidin-1-yl)(3-hydroxycyclobutyl)methanone] |
| 130 nM | Cc1c(-c2cc3cc(F)cc(C4CCN(C(=O)C5CC(O)C5)CC4)c3n2CC2CC2)nn2cc(C(=O)N3CCC[C@@H](N)C3)ccc12 (mixture of isomers) [Example 492, (R)-(3-Aminopiperidin-1-yl)(2-(1-(cyclopropylmethyl)-5-fluoro-7-(1-(3-hydroxycyclobutane-1-carbonyl)piperidin-4-yl)-1H-indol-2-yl)-3-methylpyrazolo[1,5-a]pyridin-6-yl)methanone] |
| 20 nM | Cc1c(-c2cc3cc(F)cc(C4CCN(C(=O)C5CC(O)C5)CC4)c3n2CC2CC2)nn2cc(C(=O)N3C[C@H](N)C[C@@H](F)C3)ccc12 (mixture of isomers) [Example 496, ((3R,5R)-3-Amino-5-fluoropiperidin-1-yl)(2-(1-(cyclopropylmethyl)-5-fluoro-7-(1-(3-hydroxycyclobutane-1-carbonyl)piperidin-4-yl)-1H-indol-2-yl)-3-methylpyrazolo[1,5-a]pyridin-6-yl)methanone] |
| 60 nM | Cc1c(-c2cc3cc(F)cc(C4CCN(C(=O)C5CC(O)(C(F)(F)F)C5)CC4)c3n2CC2CC2)nn2cc(C(=O)N3C[C@H](N)C[C@@H](F)C3)ccc12 (mixture of isomers) [Example 505, ((3R,5R)-3-Amino-5-fluoropiperidin-1-yl)(2-(1-(cyclopropylmethyl)-5-fluoro-7-(1-(3-hydroxy-3-(trifluoromethyl)cyclobutane-1-carbonyl)piperidin-4-yl)-1H-indol-2-yl)-3-methylpyrazolo[1,5-a]pyridin-6-yl)methanone] |
| 40 nM | Cc1c(-c2cc3cc(F)cc(C4CCN(C(=O)C5CCCCO5)CC4)c3n2CC2CC2)nn2cc(C(=O)N3CCC[C@@H](N)C3)ccc12 (mixture of isomers) [Example 508, ((R)-3-Aminopiperidin-1-yl)(2-(1-(cyclopropylmethyl)-5-fluoro-7-(1-(tetrahydro-2H-pyran-2-carbonyl)piperidin-4-yl)-1H-indol-2-yl)-3-methylpyrazolo[1,5-a]pyridin-6-yl)methanone] |
| 350 nM | Cc1c(-c2cc3cc(F)cc(C4CCN(C(=O)C5CCCCO5)CC4)c3n2CC2CC2)nn2cc(C(=O)N3C[C@H](N)C[C@@H](F)C3)ccc12 (mixture of isomers) [Example 509, ((3R,5R)-3-Amino-5-fluoropiperidin-1-yl)(2-(1-(cyclopropylmethyl)-5-fluoro-7-(1-(tetrahydro-2H-pyran-2-carbonyl)piperidin-4-yl)-1H-indol-2-yl)-3-methylpyrazolo[1,5-a]pyridin-6-yl)methanone] |
| 60 nM | COc1cc(C(=O)N2CCC[C@@H](N)C2)cn2nc(-c3cc4cccc(C5CN(C(=O)C6CC(O)(C(F)(F)F)C6)C5)c4n3CC3CC3)c(C)c12 (mixture of isomers) [Example 515, (R)-(3-Aminopiperidin-1-yl)(2-(1-(cyclopropylmethyl)-7-(1-(3-hydroxy-3-(trifluoromethyl)cyclobutane-1-carbonyl)azetidin-3-yl)-1H-indol-2-yl)-4-methoxy-3-methylpyrazolo[1,5-a]pyridin-6-yl)methanone] |
| 70 nM | Cc1c(-c2cc3cccc(C4CN(C(=O)C5CC(O)(C(F)(F)F)C5)C4)c3n2CC2CC2)nn2cc(C(=O)N3CCC[C@@H](N)C3)ccc12 (mixture of isomers) [Example 535, (R)-(3-Aminopiperidin-1-yl)(2-(1-(cyclopropylmethyl)-7-(1-(3-hydroxy-3-(trifluoromethyl)cyclobutane-1-carbonyl)azetidin-3-yl)-1H-indol-2-yl)-3-methylpyrazolo[1,5-a]pyridin-6-yl)methanone] |
| 1070 nM | Cc1c(-c2cc3cccc(C4CN(C(=O)C5CCCCO5)C4)c3n2CC2CC2)nn2cc(C(=O)N3C[C@H](N)C[C@@H](F)C3)ccc12 (mixture of isomers) [Example 544, ((3R,5R)-3-Amino-5-fluoropiperidin-1-yl)(2-(1-(cyclopropylmethyl)-7-(1-(tetrahydro-2H-pyran-2-carbonyl)azetidin-3-yl)-1H-indol-2-yl)-3-methylpyrazolo[1,5-a]pyridin-6-yl)methanone] |
| 260 nM | Cc1c(-c2cc3cccc(C4CN(C(=O)C5CCCCO5)C4)c3n2CC2CC2)nn2cc(C(=O)N3CCC[C@@H](N)C3)ccc12 (mixture of isomers) [Example 545, ((R)-3-Aminopiperidin-1-yl)(2-(1-(cyclopropylmethyl)-7-(1-(tetrahydro-2H-pyran-2-carbonyl)azetidin-3-yl)-1H-indol-2-yl)-3-methylpyrazolo[1,5-a]pyridin-6-yl)methanone] |
| 10 nM | COc1cc(C(=O)N2CC3CCC2[C@@H]3N)cn2nc(-c3cc4ccnc(OCC5CNC(=O)C5)c4n3CC3CC3)c(C)c12 (mixture of isomers) [Example 608, 4-(((2-(6-((7R)-7-Amino-2-azabicyclo[2.2.1]heptane-2-carbonyl)-4-methoxy-3-methylpyrazolo[1,5-a]pyridin-2-yl)-1-(cyclopropylmethyl)-1H-pyrrolo[2,3-c]pyridin-7-yl)oxy)methyl)pyrrolidin-2-one (mixture of diastereomers)] |
| 208 nM | Cc1c(-c2cc3ccc(C(C)(O)C(F)(F)F)nc3n2CC2CC2)nn2cc(C(=O)N3C[C@H](N)C[C@@H](F)C3)ccc12 (single isomer, unassigned) [Example 106] |
| 240 nM | Cc1c(-c2cc3ccc(C(C)(O)C(F)(F)F)nc3n2CC2CC2)nn2cc(C(=O)N3C[C@H](N)C[C@@H](F)C3)ccc12 (single isomer, unassigned) [Example 107] |
| 80 nM | COc1cc(C(=O)N2CCC[C@@H](N)C2)cn2nc(-c3cc4cccc(C5CCN(C(=O)C6CCCCO6)CC5)c4n3CC3CC3)c(C)c12 (single isomer, unassigned) [Example 386] |
| 230 nM | COc1cc(C(=O)N2CCC[C@@H](N)C2)cn2nc(-c3cc4cccc(C5CCN(C(=O)C6CCCCO6)CC5)c4n3CC3CC3)c(C)c12 (single isomer, unassigned) [Example 387] |
| 70 nM | COc1cc(C(=O)N2C[C@H](N)C[C@@H](F)C2)cn2nc(-c3cc4cccc(C5CCN(C(=O)C6CCCCO6)CC5)c4n3CC3CC3)c(C)c12 (single isomer, unassigned) [Example 388] |
| 30 nM | COc1cc(C(=O)N2C[C@H](N)C[C@@H](F)C2)cn2nc(-c3cc4cccc(C5CCN(C(=O)C6CCCCO6)CC5)c4n3CC3CC3)c(C)c12 (single isomer, unassigned) [Example 389] |
| 5 nM | COc1cc(C(=O)N2C[C@H](N)C[C@@H](F)C2)cn2nc(-c3cc4cccc(C5CCN(C(=O)C6CC(O)C6)CC5)c4n3CC3CC3)c(C)c12 (single isomer, unassigned) [Example 390] |
| 3 nM | COc1cc(C(=O)N2CCC[C@@H](N)C2)cn2nc(-c3cc4cccc(C5CCN(C(=O)C6CC(O)C6)CC5)c4n3CC3CC3)c(C)c12 (single isomer, unassigned) [Example 392] |
